{
  "source": "paper PMC5218480",
  "about": "(PLoS ONE, 2017)",
  "test_system": "MV-4-11 cells",
  "experiment": "Gene expression microarray analysis (Affymetrix PrimeView) and GSEA",
  "assay_type": "cell-based, human",
  "parameters": "RFU PODN (11730768_x_at) / Fold change /veh PODN (11730768_x_at) / RFU LINC00158 (11744669_a_at) / Fold change /veh LINC00158 (11744669_a_at) / RFU DUSP10 (11751237_a_at) / Fold change /veh DUSP10 (11751237_a_at) / RFU ID3 (11757404_x_at) / Fold change /veh ID3 (11757404_x_at) / RFU PLEKHG5 (11737974_s_at) / Fold change /veh PLEKHG5 (11737974_s_at) / RFU LRRC4B (11730491_at) / Fold change /veh LRRC4B (11730491_at) / RFU GIMAP4 (11747438_a_at) / Fold change /veh GIMAP4 (11747438_a_at) / RFU KRT8 (11758183_x_at) / Fold change /veh KRT8 (11758183_x_at) / RFU CNN1 (11734310_a_at) / Fold change /veh CNN1 (11734310_a_at) / RFU VPS37D (11726825_at) / Fold change /veh VPS37D (11726825_at) / RFU C10orf10 (11716522_x_at) / Fold change /veh C10orf10 (11716522_x_at) / RFU KIR2DL2 /// KIR2DL4 /// KIR2DL5A /// KIR2DL5B /// KIR2DS1 /// KIR2DS2 /// KIR2DS3 /// KIR2DS4 /// KIR3DL3 /// KIR3DL3 /// KIR3DS1 (11738374_at) / Fold change /veh KIR2DL2 /// KIR2DL4 /// KIR2DL5A /// KIR2DL5B /// KIR2DS1 /// KIR2DS2 /// KIR2DS3 /// KIR2DS4 /// KIR3DL3 /// KIR3DL3 /// KIR3DS1 (11738374_at) / RFU C1QL1 (11718748_at) / Fold change /veh C1QL1 (11718748_at) / RFU TMPRSS4 (11747572_a_at) / Fold change /veh TMPRSS4 (11747572_a_at) / RFU HAMP (11756126_x_at) / Fold change /veh HAMP (11756126_x_at) / RFU RNFT2 (11725882_a_at) / Fold change /veh RNFT2 (11725882_a_at) / RFU NR4A2 (11747474_a_at) / Fold change /veh NR4A2 (11747474_a_at) / RFU ABCC12 (11746883_a_at) / Fold change /veh ABCC12 (11746883_a_at) / RFU TMEM136 (11760407_x_at) / Fold change /veh TMEM136 (11760407_x_at) / RFU CLDN22 /// WWC2 (11732394_at) / Fold change /veh CLDN22 /// WWC2 (11732394_at) / RFU HLA-DPB1 (11760878_x_at) / Fold change /veh HLA-DPB1 (11760878_x_at) / RFU SPINT1 (11716480_a_at) / Fold change /veh SPINT1 (11716480_a_at) / RFU GAP43 (11754022_s_at) / Fold change /veh GAP43 (11754022_s_at) / RFU A4GNT (11735810_at) / Fold change /veh A4GNT (11735810_at) / RFU PRB3 (11715151_x_at) / Fold change /veh PRB3 (11715151_x_at) / RFU TUBB4B (11761932_at) / Fold change /veh TUBB4B (11761932_at) / RFU CAPN14 (11732068_a_at) / Fold change /veh CAPN14 (11732068_a_at) / RFU TMCC2 (11721928_a_at) / Fold change /veh TMCC2 (11721928_a_at) / RFU IRGQ (11745062_a_at) / Fold change /veh IRGQ (11745062_a_at) / RFU FAM174B (11720279_a_at) / Fold change /veh FAM174B (11720279_a_at) / RFU TMPRSS4 (11748680_a_at) / Fold change /veh TMPRSS4 (11748680_a_at) / RFU FAM212B (11763350_a_at) / Fold change /veh FAM212B (11763350_a_at) / RFU PLEKHG5 (11743358_a_at) / Fold change /veh PLEKHG5 (11743358_a_at) / RFU ZSCAN30 (11745921_a_at) / Fold change /veh ZSCAN30 (11745921_a_at) / RFU CMKLR1 (11741424_a_at) / Fold change /veh CMKLR1 (11741424_a_at) / RFU LOC101060620 /// MAPK8IP1 (11723275_at) / Fold change /veh LOC101060620 /// MAPK8IP1 (11723275_at) / RFU SPTSSB (11747773_x_at) / Fold change /veh SPTSSB (11747773_x_at) / RFU PRSS12 (11739890_at) / Fold change /veh PRSS12 (11739890_at) / RFU BIN1 (11741810_x_at) / Fold change /veh BIN1 (11741810_x_at) / RFU WNT11 (11732464_a_at) / Fold change /veh WNT11 (11732464_a_at) / RFU C10orf10 (11716521_a_at) / Fold change /veh C10orf10 (11716521_a_at) / RFU C5orf56 (11738089_at) / Fold change /veh C5orf56 (11738089_at) / RFU CYB561 (11721691_x_at) / Fold change /veh CYB561 (11721691_x_at) / RFU ANKRD19P (11752326_a_at) / Fold change /veh ANKRD19P (11752326_a_at) / RFU OR2T12 /// OR2T33 /// OR2T8 (11738714_s_at) / Fold change /veh OR2T12 /// OR2T33 /// OR2T8 (11738714_s_at) / RFU VCAN (11748164_a_at) / Fold change /veh VCAN (11748164_a_at) / RFU JSRP1 (11732532_at) / Fold change /veh JSRP1 (11732532_at) / RFU KRTAP10-11 (11738290_x_at) / Fold change /veh KRTAP10-11 (11738290_x_at) / RFU MYO3A (11730013_a_at) / Fold change /veh MYO3A (11730013_a_at) / RFU EBF3 (11725865_a_at) / Fold change /veh EBF3 (11725865_a_at) / RFU CAMK2N1 (11719241_x_at) / Fold change /veh CAMK2N1 (11719241_x_at) / RFU C5orf56 (11738088_a_at) / Fold change /veh C5orf56 (11738088_a_at) / RFU OLFML3 (11715873_a_at) / Fold change /veh OLFML3 (11715873_a_at) / RFU LOC100653217 /// NTM (11731650_a_at) / Fold change /veh LOC100653217 /// NTM (11731650_a_at) / RFU MAPK11 (11762145_a_at) / Fold change /veh MAPK11 (11762145_a_at) / RFU FIZ1 (11724087_x_at) / Fold change /veh FIZ1 (11724087_x_at) / RFU OASL (11726364_x_at) / Fold change /veh OASL (11726364_x_at) / RFU SOX15 (11748057_x_at) / Fold change /veh SOX15 (11748057_x_at) / RFU CD79A (11719716_a_at) / Fold change /veh CD79A (11719716_a_at) / RFU HIST1H1D (11736915_at) / Fold change /veh HIST1H1D (11736915_at) / RFU CASKIN2 (11723855_a_at) / Fold change /veh CASKIN2 (11723855_a_at) / RFU LOC730098 (11760151_x_at) / Fold change /veh LOC730098 (11760151_x_at) / RFU OR4N2 (11742367_at) / Fold change /veh OR4N2 (11742367_at) / RFU PRRT2 (11749266_a_at) / Fold change /veh PRRT2 (11749266_a_at) / RFU SNX32 (11753110_a_at) / Fold change /veh SNX32 (11753110_a_at) / RFU CDHR5 (11726645_a_at) / Fold change /veh CDHR5 (11726645_a_at) / RFU RCAN1 (11760418_a_at) / Fold change /veh RCAN1 (11760418_a_at) / RFU FAM167A (11723789_a_at) / Fold change /veh FAM167A (11723789_a_at) / RFU FAM26E (11764081_at) / Fold change /veh FAM26E (11764081_at) / RFU ISYNA1 (11749810_s_at) / Fold change /veh ISYNA1 (11749810_s_at) / RFU ACY1 (11761880_at) / Fold change /veh ACY1 (11761880_at) / RFU 11764098_at / Fold change /veh 11764098_at / RFU SAMD14 (11745864_x_at) / Fold change /veh SAMD14 (11745864_x_at) / RFU NPB (11741838_a_at) / Fold change /veh NPB (11741838_a_at) / RFU TMPRSS6 (11731388_a_at) / Fold change /veh TMPRSS6 (11731388_a_at) / RFU KRTAP10-2 (11738614_at) / Fold change /veh KRTAP10-2 (11738614_at) / RFU ARHGAP8 /// PRR5-ARHGAP8 (11727945_x_at) / Fold change /veh ARHGAP8 /// PRR5-ARHGAP8 (11727945_x_at) / RFU KRTAP5-7 /// NADSYN1 (11734609_at) / Fold change /veh KRTAP5-7 /// NADSYN1 (11734609_at) / RFU RASL12 (11751679_a_at) / Fold change /veh RASL12 (11751679_a_at) / RFU CDKN2B (11736163_a_at) / Fold change /veh CDKN2B (11736163_a_at) / RFU PRF1 (11729649_at) / Fold change /veh PRF1 (11729649_at) / RFU, ZNF638 /// ZNF638-IT1 / Fold change vs veh, ZNF638 /// ZNF638-IT1 / RFU, PANK3 / Fold change vs veh, PANK3 / RFU, SH3YL1 / Fold change vs veh, SH3YL1 / RFU, ZEB2 / Fold change vs veh, ZEB2 / RFU, NRIP1 / Fold change vs veh, NRIP1 / RFU, PTTG1IP / Fold change vs veh, PTTG1IP / RFU, CAPN2 / Fold change vs veh, CAPN2 / RFU, MED14 / Fold change vs veh, MED14 / RFU, SNORA58 / Fold change vs veh, SNORA58 / RFU, C1orf63 / Fold change vs veh, C1orf63 / RFU, LRRFIP1 / Fold change vs veh, LRRFIP1 / RFU, NDUFAF7 / Fold change vs veh, NDUFAF7 / RFU, SLC12A2 / Fold change vs veh, SLC12A2 / RFU, IBTK / Fold change vs veh, IBTK / RFU, ESF1 / Fold change vs veh, ESF1 / Fold change vs veh, TMEM50B / RFU, TAOK1 / Fold change vs veh, TAOK1 / RFU, ACBD3 / Fold change vs veh, ACBD3 / RFU, TMA16 / Fold change vs veh, TMA16 / RFU, RWDD3 / Fold change vs veh, RWDD3 / RFU, BCAT1 / Fold change vs veh, BCAT1 / RFU, EDEM3 / Fold change vs veh, EDEM3 / RFU, TMEM33 / Fold change vs veh, TMEM33 / RFU, WDR75 / Fold change vs veh, WDR75 / RFU, AHCTF1 / Fold change vs veh, AHCTF1 / RFU, TFRC / Fold change vs veh, TFRC / RFU, ZDHHC17 / Fold change vs veh, ZDHHC17 / RFU, NOM1 / Fold change vs veh, NOM1 / RFU, ARL8B / Fold change vs veh, ARL8B / RFU, ZBTB11 / Fold change vs veh, ZBTB11 / RFU, TAMM41 / Fold change vs veh, TAMM41 / RFU, KIAA1704 /// LOC100996395 / Fold change vs veh, KIAA1704 /// LOC100996395 / RFU, ING1 / Fold change vs veh, ING1 / RFU, TRMT61B / Fold change vs veh, TRMT61B / RFU, FUBP3 / Fold change vs veh, FUBP3 / RFU, TP53 / Fold change vs veh, TP53 / RFU, TNKS2 / Fold change vs veh, TNKS2 / RFU, ZFP14 / Fold change vs veh, ZFP14 / RFU, ACTR2 / Fold change vs veh, ACTR2 / RFU, PPP3R1 / Fold change vs veh, PPP3R1 / RFU, PIK3R1 / Fold change vs veh, PIK3R1 / RFU, HNRNPA1 / Fold change vs veh, HNRNPA1 / RFU, RNF170 / Fold change vs veh, RNF170 / RFU, ZNF28 / Fold change vs veh, ZNF28 / RFU, RNGTT / Fold change vs veh, RNGTT / RFU, OGT / Fold change vs veh, OGT / RFU, BRD1 / Fold change vs veh, BRD1 / RFU, MARS / Fold change vs veh, MARS / RFU, ZNF655 / Fold change vs veh, ZNF655 / RFU, FAHD1 / Fold change vs veh, FAHD1 / RFU, BDP1 / Fold change vs veh, BDP1 / RFU, LRRCC1 / Fold change vs veh, LRRCC1 / RFU, ARID1A / Fold change vs veh, ARID1A / RFU, ZNF146 / Fold change vs veh, ZNF146 / RFU, ZNF330 / Fold change vs veh, ZNF330 / RFU, GPN3 / Fold change vs veh, GPN3 / RFU, C9orf123 / Fold change vs veh, C9orf123 / RFU, N4BP2L2 / Fold change vs veh, N4BP2L2 / RFU, ARFIP1 / Fold change vs veh, ARFIP1 / RFU, FAM179B / Fold change vs veh, FAM179B / RFU, BCL10 / Fold change vs veh, BCL10 / RFU, UHRF1BP1L / Fold change vs veh, UHRF1BP1L / RFU, BET1 / Fold change vs veh, BET1 / RFU, CNOT2 / Fold change vs veh, CNOT2 / RFU, ZNF268 / Fold change vs veh, ZNF268 / Fold change vs veh, ZNF507 / RFU, DGCR2 / Fold change vs veh, DGCR2 / RFU, WDSUB1 / Fold change vs veh, WDSUB1 / Fold change vs veh, HSP90B1 /// MIR3652 / RFU, ADSS / Fold change vs veh, ADSS / RFU, GK / Fold change vs veh, GK / RFU, ZNF148 / Fold change vs veh, ZNF148 / RFU, TAF9 / Fold change vs veh, TAF9 / RFU, SLC1A5 / Fold change vs veh, SLC1A5 / RFU, SLMO2 / Fold change vs veh, SLMO2 / RFU, ABCC4 / Fold change vs veh, ABCC4 / RFU, LOC101060439 /// RAP1B / Fold change vs veh, LOC101060439 /// RAP1B / RFU, RFX7 / Fold change vs veh, RFX7 / RFU, GTPBP10 / Fold change vs veh, GTPBP10 / RFU, CNEP1R1 / Fold change vs veh, CNEP1R1 / RFU, BIVM-ERCC5 /// ERCC5 / Fold change vs veh, BIVM-ERCC5 /// ERCC5 / RFU, ILF3 / Fold change vs veh, ILF3 / RFU 11762660_at / Fold change /veh 11762660_at / RFU VCAN (11757783_s_at) / Fold change /veh VCAN (11757783_s_at) / RFU DDX43 (11728927_at) / Fold change /veh DDX43 (11728927_at) / RFU KRT8 (11758188_x_at) / Fold change /veh KRT8 (11758188_x_at) / RFU NKD1 (11759106_at) / Fold change /veh NKD1 (11759106_at) / RFU SRD5A1 (11742802_a_at) / Fold change /veh SRD5A1 (11742802_a_at) / RFU TPSAB1 /// TPSB2 (11721975_s_at) / Fold change /veh TPSAB1 /// TPSB2 (11721975_s_at) / RFU GSTM3 (11746129_a_at) / Fold change /veh GSTM3 (11746129_a_at) / RFU IL23R (11737362_x_at) / Fold change /veh IL23R (11737362_x_at) / RFU TMEM51 (11727254_a_at) / Fold change /veh TMEM51 (11727254_a_at) / RFU PIWIL2 (11732686_x_at) / Fold change /veh PIWIL2 (11732686_x_at) / RFU ORM1 (11744905_x_at) / Fold change /veh ORM1 (11744905_x_at) / RFU CCDC152 (11743942_at) / Fold change /veh CCDC152 (11743942_at) / RFU ECM1 (11717891_a_at) / Fold change /veh ECM1 (11717891_a_at) / RFU IL23R (11748794_a_at) / Fold change /veh IL23R (11748794_a_at) / RFU TNFAIP8L3 (11732012_x_at) / Fold change /veh TNFAIP8L3 (11732012_x_at) / RFU MBOAT4 (11741988_at) / Fold change /veh MBOAT4 (11741988_at) / RFU 11764193_at / Fold change /veh 11764193_at / RFU TMEM53 (11763286_at) / Fold change /veh TMEM53 (11763286_at) / RFU MAGEB2 (11727129_at) / Fold change /veh MAGEB2 (11727129_at) / RFU TMEM200A (11744735_a_at) / Fold change /veh TMEM200A (11744735_a_at) / RFU CCDC152 (11751479_a_at) / Fold change /veh CCDC152 (11751479_a_at) / RFU FAM211A (11726209_a_at) / Fold change /veh FAM211A (11726209_a_at) / RFU RGS16 (11746705_a_at) / Fold change /veh RGS16 (11746705_a_at) / RFU VCAN (11755009_s_at) / Fold change /veh VCAN (11755009_s_at) / RFU RHOB (11743442_s_at) / Fold change /veh RHOB (11743442_s_at) / RFU RGS16 (11720943_a_at) / Fold change /veh RGS16 (11720943_a_at) / RFU RGS16 (11720944_at) / Fold change /veh RGS16 (11720944_at) / RFU, VPS4B / Fold change vs veh, VPS4B / RFU, CREB1 / Fold change vs veh, CREB1 / RFU, DNAJC13 / Fold change vs veh, DNAJC13 / RFU, GNAQ / Fold change vs veh, GNAQ / RFU, CDK5R1 / Fold change vs veh, CDK5R1 / RFU, ZRANB3 / Fold change vs veh, ZRANB3 / RFU, CUL4A / Fold change vs veh, CUL4A / RFU, CCNY / Fold change vs veh, CCNY / RFU, UFL1 / Fold change vs veh, UFL1 / RFU, COG3 / Fold change vs veh, COG3 / RFU, DIAPH2 / Fold change vs veh, DIAPH2 / RFU, SKA2 / Fold change vs veh, SKA2 / RFU, AFF3 / Fold change vs veh, AFF3 / RFU, LMF1 / Fold change vs veh, LMF1 / RFU, IPO11 / Fold change vs veh, IPO11 / RFU, DFFB / Fold change vs veh, DFFB / RFU, FOXP1 / Fold change vs veh, FOXP1 / RFU, CARD8 / Fold change vs veh, CARD8 / RFU, STRN3 / Fold change vs veh, STRN3 / RFU, ADK / Fold change vs veh, ADK / RFU, RASSF2 / Fold change vs veh, RASSF2 / RFU, WIPF1 / Fold change vs veh, WIPF1 / RFU, LARP1B / Fold change vs veh, LARP1B / RFU, RASA1 / Fold change vs veh, RASA1 / RFU, RB1 / Fold change vs veh, RB1 / RFU, PPFIA1 / Fold change vs veh, PPFIA1 / RFU, MAT2A / Fold change vs veh, MAT2A / RFU, CCT5 / Fold change vs veh, CCT5 / RFU, WDR92 / Fold change vs veh, WDR92 / RFU, CUX1 / Fold change vs veh, CUX1 / RFU, TTC7A / Fold change vs veh, TTC7A / RFU, TMEM135 / Fold change vs veh, TMEM135 / RFU, DEPTOR / Fold change vs veh, DEPTOR / RFU, CPM / Fold change vs veh, CPM / RFU, DNAJB6 / Fold change vs veh, DNAJB6 / RFU, CACNA2D3 / Fold change vs veh, CACNA2D3 / RFU, DTX4 / Fold change vs veh, DTX4 / RFU, TFCP2 / Fold change vs veh, TFCP2 / RFU, GMCL1 /// GMCL1P1 / Fold change vs veh, GMCL1 /// GMCL1P1 / RFU, AEBP2 / Fold change vs veh, AEBP2 / RFU, SNHG1 /// SNORD22 /// SNORD25 /// SNORD26 /// SNORD27 /// SNORD28 /// SNORD29 /// SNORD31 / Fold change vs veh, SNHG1 /// SNORD22 /// SNORD25 /// SNORD26 /// SNORD27 /// SNORD28 /// SNORD29 /// SNORD31 / Fold change (Aza/veh), C12orf56 (ProbeSet 11735607_a_at) / Fold change (ACY-1035/veh), C12orf56 (ProbeSet 11735607_a_at) / Fold change (Aza/veh), FGFR1OP (ProbeSet 11751329_s_at) / Fold change (ACY-1035/veh), FGFR1OP (ProbeSet 11751329_s_at) / Fold change (Aza/veh), VPS36 (ProbeSet 11739960_a_at) / Fold change (ACY-1035/veh), VPS36 (ProbeSet 11739960_a_at) / RFU SYPL1 (11715823_x_at) / Fold change /veh SYPL1 (11715823_x_at) / RFU IGFBP7 (11715501_s_at) / Fold change /veh IGFBP7 (11715501_s_at) / RFU REEP3 (11722064_at) / Fold change /veh REEP3 (11722064_at) / RFU IGLL1 (11728026_x_at) / Fold change /veh IGLL1 (11728026_x_at): dose or concentration left out as unconfirmed",
  "conditions": "MV-4-11 cells, 48 hours",
  "data": [
    {"smiles": "Nc1ccc(-c2cccs2)cc1NC(=O)c1ccc2c(c1)cc(C1CC1)n2CCN1CCOCC1", "note": "[ACY-1035]", "values": [
      {"measurement": "Fold change /veh LINC00158 (11744669_a_at)", "result": 1.11}
    ]}
  ]
}
